Measurements from PMC5104769, “Concentration-Dependent Dual Mode of Zn Action at Serotonin 5-HT1A Receptors: In Vitro and In Vivo Studies” (Molecular neurobiology, 2015).

Assays:
Sprague Dawley rats [1] = test: Forced swim test (FST) in rats; format: in vivo, rat
Protocol: The test was carried out according to the method described previously [10]. On day one of the experiment, the animals were individually placed in plexiglass cylinders (40 cm in height, 18 cm in diameter), containing 25 cm of water maintained at 24–25 °C for a 15-min habituation period. After the rats were removed from the water, they were again placed in their home cages. On the second day, the rats were again placed in the cylinders, and the total duration of immobility was measured for a 5-min test period. Zn (1 or 2 mg Zn/ kg, given as Zn hydroaspartate) and 8-OH-DPAT (0.1 or 0.3 mg/kg) were administered alone or jointly 30 min before the test. WAY-100635 (0.1 mg/kg) was administered 15 min before the Zn treatment.

Sprague Dawley rats [2] = test: 5-HT behavioural syndrome (flat body posture, forepaw treading) in rats; format: in vivo, rat; details: for behavioural score FBP (A) VEH / behavioural score FT (A) VEH: max score 10
Protocol: The experiments were performed on male Albino Swiss mice (23–25 g) and Sprague Dawley rats (200–250 g) from Charles River, Germany as well as TPH2-Cre-ER^T2 x flx-5-HT1A-flx-YFP mice from Jackson Labs, Bangor ME and the Hen lab, respectively. The animals were kept under standard laboratory conditions with respect to lighting (light phase 7:00–19:00) and temperature (19–21 °C). Food and water were freely available. Each experimental group consisted of eight to ten animals. All of the animals were experimentally naive and were used only once in each test. The experiments were performed during the light period (9:00–14:00 h). All of the procedures were conducted according to the guidelines of the National Institutes of Health Animal Care and Use Committee and were approved by the Ethics Committees of the Institute of Pharmacology, Polish Academy of Sciences in Krakow and the Animal Care Committee, University of Ottawa.
Zn (all doses refer to mg Zn/kg) was given as either Zn hydroaspartate (Farmapol, Poland) or Zn chloride (Sigma-Aldrich) and was dissolved in 0.9 % NaCl and administered intraperitoneally (i.p.). 8-OH-DPAT and WAY-100635 were dissolved in aqua pro-injection and were administered subcutaneously (s.c.). Controls were treated with the appropriate diluent, which was indicated as VEH on the graphs and in the tables.
The experiments were conducted according to previously published procedure, with a modification to the ranked intensity scale. Briefly, the rats were individually placed in cages (30×25×25 cm) 5 min before tested compounds were injected. Forepaw treading (FT) and flat body posture (FBP) were scored using a ranked intensity scale, where 0=absent, 1=equivocal and 2=present. The Zn (2, 5, 7.5 and 11.5 mg Zn/kg, given as a Zn hydroaspartate)-induced behavioural syndrome was scored for each animal 3, 6, 9, 12 and 15 min after the Zn treatment. Each observation session lasted for 45 s. The maximum score, which was summed over 5 observation periods, was 10 for each symptom/rat. The effect of Zn on the behavioural syndrome induced by 8-OH-DPAT (5 mg/kg) was scored using the same scale. Zn was administered 60 min before 8-OH-DPAT, and the animals were scored 3, 6, 9, 12 and 15 min after the 8-OH-DPAT treatment.

Sprague Dawley rats [3] = test: Lower lip retraction (LLR) in rats; format: in vivo, rat; details: for Mean LLR score (A) VEH: max score 3/rat
Protocol: The experiments were performed on male Albino Swiss mice (23-25 g) and Sprague Dawley rats (200-250 g) from Charles River, Germany as well as […]-flx-YFP mice from Jackson Labs, Bangor ME and the Hen lab, respectively. The animals were kept under standard laboratory conditions with respect to lighting (light phase 7:00-19:00) and temperature (19-21 °C). Food and water were freely available. Each experimental group consisted of eight to ten animals. All of the animals were experimentally naive and were used only once in each test. The experiments were performed during the light period (9:00-14:00 h). All of the procedures were conducted according to the guidelines of the National Institutes of Health Animal Care and Use Committee and were approved by the Ethics Committees of the Institute of Pharmacology, Polish Academy of Sciences in Krakow and the Animal Care Committee, University of Ottawa. […] Controls were treated with the appropriate diluent, which was indicated as VEH on the graphs and in the tables. LLR was assessed according to the method described by Berendsen et al., [20]. The rats were individually placed in cages (30×25×25 cm) and were scored three times, 15, 30 and 45 min after the administration of Zn as follows: 0=lower incisors not visible, 0.5=partly visible and 1=completely visible. Zn was administered at doses of 2 and 5 mg Zn/kg (given as Zn hydroaspartate, Farmapol, Poland). The maximum total score was 3/rat. In addition, the effects of Zn and WAY-100635 (0.1 mg/kg; […] Sigma) were tested.

5-HT3 receptor = system: 5-HT3 receptor; set-up: method as in PMID 7620711; details: electrophysiology, cited from earlier work
[4] = Body temperature in wild-type and 5-HT1A autoreceptor KO mice; format: in vivo, mouse; details: Zn 5 mg/kg (Zn chloride), 30 and 60 min
From the text: A conditional knockout approach was used to eliminate the 5-HT1AR in the raphe nuclei in adult mice. To create the conditional 5-HT1AR knockout mice, a TPH2-Cre-ER^T2 mouse line was crossed with a flx-5-HT1A-YFP mouse line. The TPH2-Cre-ER^T2 confers specificity such that only serotonin neurons, which express tryptophan hydroxylase 2 (TPH2), can express Cre recombinase to knockout the 5-HT1AR gene and allow for […] expression. Once the mice reached adulthood (approximately 5–6 postnatal weeks), tamoxifen (180 mg/kg) was injected i.p. every day for five consecutive days (the tamoxifen binds to the ER^T2 domain and enables Cre to enter the nucleus where it can excise the 5-HT1AR gene, allowing for YFP expression as a marker of recombination). The mice were then left undisturbed for at least 14 days to allow for recombination and the turnover of endogenous 5-HT1ARs.
A separate experiment was performed to measure the effect of Zn on rectal body temperature in wild-type and 5-HT1A autoreceptor KO mice; however, in this experiment, only the higher dose of Zn (5 mg Zn/kg; Zn chloride, Sigma) was used.

[5] = Zn 2 mg/kg 60 min before 8-OH-DPAT 5 mg/kg
[6] = Zn 5 mg/kg 60 min before 8-OH-DPAT 5 mg/kg
[7] = Zn 7.5 mg/kg 60 min before 8-OH-DPAT 5 mg/kg
[8] = Zn 11.5 mg/kg 60 min before 8-OH-DPAT 5 mg/kg

With `[Zn+2]` [Zn, Zinc] the “immobility time in the FST” value (Sprague Dawley rats [1]; Zn 1 mg/kg, 30 min before test (Fig. 5a)) was “not 1 mg/kg significantly decreased the immobility time”, the “immobility time in the FST” value (Sprague Dawley rats [1]; Zn 2 mg/kg, 30 min before test (Fig. 5a)) was “significantly decreased the immobility time” and the “immobility time in the FST” value (Sprague Dawley rats [1]; Zn 2 and 5 mg/kg (Fig. 5b)) was “significantly decreased the immobility time”. For the same compound, the “immobility time in the FST” value (Sprague Dawley rats [1]; Zn given jointly with 8-OH-DPAT at doses ineffective alone, vs VEH) was “significantly decreased the immobility time”, the “effect on 8-OH-DPAT-induced FBP and FT (in words)” value (Sprague Dawley rats [2]; FBP at 11.5 mg/kg, FT at 7.5 and 11.5 mg/kg Zn) was “blocked the 8-OH-DPAT-induced FBP and FT” and the “behavioural score FBP (B) 8-OH-DPAT” value (Sprague Dawley rats [2]; [5]) was 7.7±0.3. The “behavioural score FT (B) 8-OH-DPAT” value (Sprague Dawley rats [2]; [5]) was 7.1±0.6, the “behavioural score FBP (A) VEH” value (Sprague Dawley rats [2]; Zn 2 mg/kg alone) was 0.2±0.2 and the “behavioural score FT (A) VEH” value (Sprague Dawley rats [2]; Zn 2 mg/kg alone) was 0.3±0.2. For the same compound, the “behavioural score FBP (B) 8-OH-DPAT” value (Sprague Dawley rats [2]; [6]) was 7.5±0.8, the “behavioural score FT (B) 8-OH-DPAT” value (Sprague Dawley rats [2]; [6]) was 7.5±0.5 and the “behavioural score FBP (A) VEH” value (Sprague Dawley rats [2]; Zn 5 mg/kg alone) was 0.3±0.3. For the same compound, the “behavioural score FT (A) VEH” value (Sprague Dawley rats [2]; Zn 5 mg/kg alone) was 0.2±0.2, the “behavioural score FBP (B) 8-OH-DPAT” value (Sprague Dawley rats [2]; [7]) was 7.0±0.3 and the “behavioural score FT (B) 8-OH-DPAT” value (Sprague Dawley rats [2]; [7]) was 5.0±0.6. The “behavioural score FBP (A) VEH” value (Sprague Dawley rats [2]; Zn 7.5 mg/kg alone) was 0.5±0.5, the “behavioural score FT (A) VEH” value (Sprague Dawley rats [2]; Zn 7.5 mg/kg alone) was 0.2±0.2 and the “behavioural score FBP (B) 8-OH-DPAT” value (Sprague Dawley rats [2]; [8]) was 3.4±0.6. The “behavioural score FT (B) 8-OH-DPAT” value (Sprague Dawley rats [2]; [8]) was 0.4±0.2, the “behavioural score FBP (A) VEH” value (Sprague Dawley rats [2]; Zn 11.5 mg/kg alone) was 0.5±0.2 and the “behavioural score FT (A) VEH” value (Sprague Dawley rats [2]; Zn 11.5 mg/kg alone) was 0.2±0.2. For the same compound, the “induction of FBP or FT (in words)” value (Sprague Dawley rats [2]; Zn 2, 5, 7.5 and 11.5 mg/kg alone) was “did not induce FBP or FT”, the “Mean LLR score (A) VEH” value (Sprague Dawley rats [3]; Zn 2 mg Zn/kg i.p. alone) was 0.0±0.0 and the “Mean LLR score (B) 8-OH-DPAT 1 mg/kg” value (Sprague Dawley rats [3]; Zn 2 mg/kg 45 min before 8-OH-DPAT 1 mg/kg) was 1.17±0.98. For the same compound, the “Mean LLR score (A) VEH” value (Sprague Dawley rats [3]; Zn 5 mg Zn/kg i.p. alone) was 0.0±0.0, the “Mean LLR score (B) 8-OH-DPAT 1 mg/kg” value (Sprague Dawley rats [3]; Zn 5 mg/kg 45 min before 8-OH-DPAT 1 mg/kg) was 0.46±0.75 and the “effect on LLR induced by 8-OH-DPAT (in words)” value (Sprague Dawley rats [3]; Zn 2 and 5 mg/kg or WAY-100635 0.1 mg/kg before 8-OH-DPAT 1 mg/kg) was “blocked the LLR induced by 8-OH-DPAT”. For the same compound, the “induction of LLR (in words)” value (Sprague Dawley rats [3]; given alone: 8-OH-DPAT 1 mg/kg, Zn 2 and 5 mg/kg, WAY-100635 0.1 mg/kg) was “did not evoke LLR”, the “Zn concentrations that depressed the 5-HT-induced response” value (5-HT3 receptor; high concentrations) was 30 to 200 µM and the “Zn concentrations that enhanced the 5-HT-induced response” value (5-HT3 receptor; low concentrations) was 0.3 to 10 µM. For the same compound, the “change in body temperature” value [4] was “decreased the body temperature of the wild-type mice”.
